Source: patent publication US5482967A, “Condensed heterocyclic compounds, their production and use” (Takeda Chemical Industries, Ltd., priority 1992, dated 1996)

target: T1, acyl-CoA:cholesterol acyl transferase (ACAT) (Rattus norvegicus, UniProt Q7TQM4); assay: Inhibitory action against acyl-CoA:cholesterol acyl transferase (ACAT), formation of labeled cholesterol ester, small intestine mucosal microsome fraction; format: biochemical, male Sprague-Dawley rat; settings: 10^-6 M; read-out: ACAT Inhibitory Rate (%)
T1 construct: small intestine mucosal microsome fraction of a 6-week-old male Sprague-Dawley rat; from tissue; host or cells: rat small intestine mucosa, microsome fraction
T1 sequence (Q7TQM4 1-524): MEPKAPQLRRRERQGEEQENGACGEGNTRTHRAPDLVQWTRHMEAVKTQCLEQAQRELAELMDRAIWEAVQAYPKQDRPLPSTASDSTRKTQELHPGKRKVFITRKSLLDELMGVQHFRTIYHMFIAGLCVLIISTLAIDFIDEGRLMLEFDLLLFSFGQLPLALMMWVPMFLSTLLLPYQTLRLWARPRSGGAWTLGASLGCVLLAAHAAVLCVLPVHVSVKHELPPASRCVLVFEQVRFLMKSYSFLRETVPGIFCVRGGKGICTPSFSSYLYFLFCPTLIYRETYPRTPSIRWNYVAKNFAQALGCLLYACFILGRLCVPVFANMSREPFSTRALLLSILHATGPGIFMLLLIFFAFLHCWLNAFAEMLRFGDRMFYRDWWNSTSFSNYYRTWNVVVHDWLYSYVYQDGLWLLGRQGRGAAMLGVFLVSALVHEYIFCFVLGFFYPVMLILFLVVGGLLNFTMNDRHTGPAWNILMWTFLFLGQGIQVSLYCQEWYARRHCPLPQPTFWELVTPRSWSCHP
Method: An ACAT enzyme preparation was prepared from a small intestine mucosal microsome fraction of a 6-week-old male Sprague-Dawley rat, previously fasted for 20 hours, in accordance with the method described by Heider et al. in the Journal of Lipid Research, Vol. 24, page 1127 (1982).
ACAT activity was determined by measuring the amount of labeled cholesterol ester produced from [1-^14 C]-oleoyl-CoA and endogenous cholesterol, in accordance with the method of Helgerud et al. [Journal of Lipid Research, Vol. 22, page 271 (1981)].

Compared with `CCOc1cc(F)cc(OCC)c1NC(=O)Cc1c(-c2ccccc2C(F)(F)F)c2cc(Cl)ccc2oc1=O` [Example 96, 6-Chloro-N-(2,6-diethoxy-4-fluorophenyl)-2-oxo-4-(2-trifluoromethylphenyl)-2H-1-benzopyran-3-acetamide], `CCOc1cc(F)cc(OCC)c1NC(=O)Cc1c(-c2ccccc2C)c2cc(Cl)ccc2oc1=O` [Example 89, 6-Chloro-N-(2,6-diethoxy-4-fluorophenyl)-4-(2-methylphenyl)-2-oxo-2H-1-benzopyran-3-acetamide] is lower in inhibition at 1 µM: 99.3% for the first, 98.2% for the second.

Compared with `CC(C)c1cccc(C(C)C)c1NC(=O)Cc1c(-c2ccccc2)c2cc(Cl)ccc2n(C)c1=O` [Example 45, N-[2,6-Bis(1-methylethyl)phenyl]-6-chloro-1,2-dihydro-1-methyl-2-oxo-4-phenyl-3-quinolineacetamide], `Cc1ccc2oc(=O)c(CC(=O)Nc3c(C(C)C)cccc3C(C)C)c(-c3ccccc3)c2c1` [Example 53, N-[2,6-Bis(1-methylethyl)phenyl]-6-methyl-2-oxo-4-phenyl-2H-1-benzopyran-3-acetamide] is higher in inhibition at 1 µM: 99.5% for the first, 99.7% for the second.

First: Cc1ccc2oc(=O)c(CC(=O)Nc3ccc(F)cc3F)c(-c3ccccc3)c2c1 [Example 55, N-(2,4-Difluorophenyl)-6-methyl-2-oxo-4-phenyl-2H-1-benzopyran-3-acetamide]
Second: Cc1ccccc1-c1c(CC(=O)Nc2ccc(F)cc2F)c(=O)oc2ccc(Cl)cc12 [Example 83, 6-Chloro-N-(2,4-difluorophenyl)-4-(2-methylphenyl)-2-oxo-2H-1-benzopyran-3-acetamide]
The inhibition at 1 µM of the first is lower: 97.9% for the first, 99.4% for the second.

Compared with `CCOc1cccc(OCC)c1NC(=O)Cc1c(-c2ccccc2C)c2cc(Cl)ccc2oc1=O` [Example 88, 6-Chloro-N-(2,6-diethoxyphenyl)-4-(2-methylphenyl)-2-oxo-2H-1-benzopyran-3-acetamide], `CCOc1cccc(OCC)c1NC(=O)Cc1c(-c2ccccc2OC)c2cc(Cl)ccc2oc1=O` [Example 93, 6-Chloro-N-(2,6-diethoxyphenyl)-4-(2-methoxyphenyl)-2-oxo-2H-1-benzopyran-3-acetamide] is lower in inhibition at 1 µM: 99.7% for the first, 99% for the second.

Compared with `COc1cc(OC)c(NC(=O)Cc2c(-c3ccccc3)c3cc(C)ccc3oc2=O)c(OC)c1` [Example 54, 6-Methyl-2-oxo-4-phenyl-N-(2,4,6-trimethoxyphenyl)-2H-1-benzopyran-3-acetamide], `COc1cc(OC)c(NC(=O)Cc2c(-c3ccccc3)c3cc(Cl)ccc3oc2=O)c(OC)c1` [Example 51, 6-Chloro-2-oxo-4-phenyl-N-(2,4,6-trimethoxyphenyl)-2H-1-benzopyran-3-acetamide] is lower in inhibition at 1 µM: 98.4% for the first, 98.1% for the second.

Compared with `O=C(Cc1oc(=O)c2ccc(Cl)cc2c1-c1ccccc1)Nc1ccc(F)cc1F` [Example 49, 6-Chloro-N-(2,4-difluorophenyl)-1-oxo-4-phenyl-1H-2-benzopyran-3-acetamide], `COc1cccc(OC)c1NC(=O)Cc1oc(=O)c2ccc(Cl)cc2c1-c1ccccc1` [Example 76, 6-Chloro-N-(2,6-dimethoxyphenyl)-1-oxo-4-phenyl-1H-2-benzopyran-3-acetamide] is higher in inhibition at 1 µM: 92.8% for the first, 99.3% for the second.

Going from `CC(C)c1cccc(C(C)C)c1NC(=O)CC1=C(c2ccccc2)c2cc(Cl)ccc2N(C)C1` [Example 99, N-[2,6-Bis(1-methylethyl)phenyl]-6-chloro-1,2-dihydro-1-methyl-4-phenyl-3-quinolineacetamide] to `CC(C)c1cccc(C(C)C)c1NC(=O)C[C@H]1CN(C)c2ccc(Cl)cc2[C@H]1c1ccccc1` (relative stereo) [Example 36, 3,4-cis-N-[2,6-Bis(1-methylethyl)phenyl]-6-chloro-1,2,3,4-tetrahydro-1-methyl-4-phenyl-3-quinolineacetamide], the inhibition at 1 µM rises from 97% to 98.8%.

Going from `COc1cc(OC)c(NC(=O)Cc2c(-c3ccccc3C)c3cc(Cl)ccc3oc2=O)c(OC)c1` [Example 85, 6-Chloro-4-(2-methylphenyl)-2-oxo-N-(2,4,6-trimethoxyphenyl)-2H-1-benzopyran-3-acetamide] to `COc1ccccc1-c1c(CC(=O)Nc2c(C(C)C)cccc2C(C)C)c(=O)oc2ccc(Cl)cc12` [Example 92, N-[2,6-Bis(1-methylethyl)phenyl]-6-chloro-4-(2-methoxyphenyl)-2-oxo-2H-1-benzopyran-3-acetamide], the inhibition at 1 µM falls from 99.5% to 98.2%.

First: COc1cc(OC)c(NC(=O)C[C@@H]2C(=O)N(C)c3ccc(Cl)cc3[C@H]2c2ccccc2)c(OC)c1 (relative stereo) [Example 25, 3,4-trans-6-Chloro-1,2,3,4-tetrahydro-1-methyl-2-oxo-4-phenyl-N-(2,4,6-trimethoxyphenyl)-3-quinolineacetamide]
Second: Cc1cc(C)c(NC(=O)C[C@@H]2C(=O)N(C)c3ccc(Cl)cc3[C@H]2c2ccccc2)c(C)c1 (relative stereo) [Example 31, 3,4-trans-6-Chloro-1,2,3,4-tetrahydro-1-methyl-2-oxo-4-phenyl-N-(2,4,6-trimethylphenyl)-3-quinolineacetamide]
The inhibition at 1 µM of the first is lower: 96.9% for the first, 97.5% for the second.

Compared with `Cc1ccc2c(c1)[C@@H](c1ccccc1)[C@H](CC(=O)Nc1c(C(C)C)cccc1C(C)C)C(=O)N2C` (relative stereo) [Example 60, 3,4-trans-N-[2,6-Bis(1-methylethyl)phenyl]-1,2,3,4-tetrahydro-1,6-dimethyl-2-oxo-4-phenyl-3-quinolineacetamide], `CC(C)c1cccc(C(C)C)c1NC(=O)C[C@H]1C(=O)N(C)c2ccc(Cl)cc2[C@H]1c1ccccc1` (relative stereo) [Example 32, 3,4-cis-N-[2,6-Bis(1-methylethyl)phenyl]-6-chloro-1,2,3,4-tetrahydro-1-methyl-2-oxo-4-phenyl-3-quinolineacetamide] is lower in inhibition at 1 µM: 99.9% for the first, 96% for the second.

Going from `CC(C)c1cccc(C(C)C)c1NC(=O)C[C@@H]1C(=O)N(C)c2ccc(Cl)cc2[C@H]1c1ccccc1Cl` (relative stereo) [Example 21, 3,4-trans-N-[2,6-Bis(1-methylethyl)phenyl]-6-chloro-4-(2-chlorophenyl)-1,2,3,4-tetrahydro-1-methyl-2-oxo-3-quinolineacetamide] to `Cc1cc2c(cc1C)N(C)C(=O)[C@@H](CC(=O)Nc1c(C(C)C)cccc1C(C)C)[C@@H]2c1ccccc1Cl` (relative stereo) [Example 20, 3,4-trans-N-[2,6-Bis(1-methylethyl)phenyl]-4-(2-chlorophenyl)-1,2,3,4-tetrahydro-1,6,7-trimethyl-2-oxo-3-quinolineacetamide], the inhibition at 1 µM falls from 99.3% to 97.8%.

Compared with `COc1cc2c(cc1OC)N(C)C(=O)C(CC(=O)Nc1c(C(C)C)cccc1C(C)C)C2c1ccccc1` (centres unmarked) [Example 18, N-[2,6-Bis(1-methylethyl)phenyl]-1,2,3,4-tetrahydro-6,7-dimethoxy-1-methyl-2-oxo-4-phenyl-3-quinolineacetamide], `Cc1ccc2c(c1)N(c1ccccc1)C(CC(=O)Nc1c(C(C)C)cccc1C(C)C)C(=O)N2C` (centres unmarked) [Example 64, N-[2,6-Bis(1-methylethyl)phenyl]-1,2,3,4-tetrahydro-1,6-dimethyl-2-oxo-4-phenyl-3-quinoxalineacetamide] is higher in inhibition at 1 µM: 97.3% for the first, 99.5% for the second.

Going from `CC(C)c1ccc2c(c1)[C@@H](c1ccc(F)cc1)[C@H](C(=O)Nc1c(C(C)C)cccc1C(C)C)C(=O)O2` (relative stereo) [Example 13, 3,4-trans-N-[2,6-Bis(1-methylethyl)phenyl]-4-(4-fluorophenyl)-3,4-dihydro-6-(1-methylethyl)-2-oxo-2H-1-benzopyran-3-carboxamide] to `CC(C)c1cccc(C(C)C)c1NC(=O)Cc1c(-c2ccccc2C(F)(F)F)c2cc(Cl)ccc2oc1=O` [Example 94, N-[2,6-Bis(1-methylethyl)phenyl]-6-chloro-2-oxo-4-(2-trifluoromethylphenyl)-2H-1-benzopyran-3-acetamide], the inhibition at 1 µM rises from 93.8% to 98.6%.

Going from `CN1C(=O)[C@@H](CC(=O)Nc2ccc(F)cc2F)[C@H](c2ccccc2)c2cc(Cl)ccc21` (relative stereo) [Example 27, 3,4-trans-6-Chloro-N-(2,4-difluorophenyl)-1,2,3,4-tetrahydro-1-methyl-2-oxo-4-phenyl-3-quinolineacetamide] to `Cc1cc2c(cc1C)N(C)C(=O)[C@@H](C(=O)Nc1ccc(F)cc1F)[C@@H]2c1ccccc1Cl` (relative stereo) [Example 10, 3,4-trans-4-(2-Chlorophenyl)-N-(2,4-difluorophenyl)-1,2,3,4-tetrahydro-1,6,7-trimethyl-2-oxo-3-quinolinecarboxamide], the inhibition at 1 µM rises from 92% to 93.3%.

With `Cc1cc2c(-c3ccccc3)c(CC(=O)Nc3c(C(C)C)cccc3C(C)C)n(C)c(=O)c2cc1C` [Example 47, N-[2,6-Bis(1-methylethyl)phenyl]-1,2-dihydro-2,6,7-trimethyl-1-oxo-4-phenyl-3-isoquinolineacetamide] the inhibition at 1 µM was 90.3%.
